From ChEMBL document CHEMBL1201862, “PubChem BioAssay data set” (2004) come the findings set out here.

Test systems include NCI-H226; COLO 205; K562; SNB-75; OVCAR-4; NCI/ADR-RES; SNB-19; CCRF-CEM; Malme-3M; SK-MEL-5; SF-268; HOP-92; UACC-257; UACC-62; HL-60; KM12; HCC 2998; SN12C; TK-10; SR.
Assay in all cases: NCI tumour cell line growth inhibition, 48 h

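Five concentrations, 48 hours, 96-well plates. The concentration for 50% growth inhibition is given as GI50.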 Calls of active or inactive are those of the source. Rule as the data show it: active = GI50 up to about 1.1 µM and inactive = higher. A value given as a limit tells only on which side of the number the result lay.

With `Cc1c2cnccc2c(C)c2c1c1ccccc1n2CCCCCCNCc1ccccc1`, the GI50 in the experiment on NCI-H226 was 1.55 µM (inactive); in the experiment on COLO 205 it was 1.43 µM (inactive); with K562 it was 0.541 µM (active); in the experiment on SNB-75, 2.05 µM (inactive); in the experiment with OVCAR-4, 0.787 µM (active); in the experiment on NCI/ADR-RES, 0.74 µM (active). In addition, the GI50 with SNB-19 is 1.88 µM (inactive); in the experiment on CCRF-CEM, 0.489 µM (active); in the experiment with Malme-3M it was 2.44 µM (inactive); with SK-MEL-5, 2.36 µM (inactive); in the experiment on SF-268, 1.41 µM (inactive); in the experiment on HOP-92 it was 2.03 µM (inactive). The GI50 in the experiment with UACC-257 is 1.96 µM (inactive); in the experiment on UACC-62, 2.32 µM (inactive); in the experiment with HL-60, 1.03 µM (active); with KM12 it was 1.21 µM (inactive); in the experiment on HCC 2998, 1.88 µM (inactive); in the experiment on SN12C, 1.59 µM (inactive).

`Cc1cnc(/C=N\NC(N)=S)c2cccc(N)c12`: the GI50 with NCI-H226 was 1.39 µM (inactive); in the experiment on TK-10, 5.78 µM (inactive); in the experiment on COLO 205, 1.4 µM (inactive); in the experiment with K562, 0.881 µM (active); in the experiment with SNB-75, 0.553 µM (active); in the experiment on OVCAR-4, 1.95 µM (inactive). Moreover, the GI50 is 1.84 µM (inactive) in the experiment on NCI/ADR-RES; 1.3 µM (inactive) in the experiment on SNB-19; 0.278 µM (active) in the experiment on CCRF-CEM; 1.62 µM (inactive) in the experiment on Malme-3M; 2.04 µM (inactive) in the experiment on SK-MEL-5; 0.565 µM (active) in the experiment on SF-268. Further, the GI50 in the experiment on UACC-257 is 2.54 µM (inactive); with UACC-62 it was 0.359 µM (active); in the experiment with HL-60, 0.3 µM (active); in the experiment with KM12 it was 1.9 µM (inactive); in the experiment with SR it was 0.314 µM (active); with HCC 2998, 0.578 µM (active). Further, in the experiment with SN12C, the GI50 was 0.434 µM (active).

Regarding `COC(OC)C1OC(CO)C(n2cc(F)c(=O)[nH]c2=O)C1O` (centres undefined), the GI50 in the experiment with NCI-H226 was > 100 µM (inactive); in the experiment with TK-10, > 100 µM (inactive); with COLO 205, 10.7 µM (inactive); in the experiment on K562 it was > 100 µM (inactive); in the experiment with SNB-75, > 100 µM (inactive); with OVCAR-4 it was > 100 µM (inactive). In addition, the GI50 in the experiment on NCI/ADR-RES, in the experiment with SNB-19, in the experiment with CCRF-CEM, in the experiment with SF-268, in the experiment on HOP-92 and with UACC-257 was > 100 µM (inactive) throughout. For the same compound, the GI50 in the experiment with UACC-62, with HL-60, with KM12, in the experiment with HCC 2998 and with SN12C was > 100 µM (inactive) throughout.

For the compound `COP(=O)(OC)/C(=C/c1cn(C(C)=O)c2ccccc12)NC(C)=O`, the GI50 was 58.2 µM (inactive) in the experiment with TK-10; 61.4 µM (inactive) with COLO 205; 6.75 µM (inactive) in the experiment with K562; 49.2 µM (inactive) in the experiment with SNB-75; 33.2 µM (inactive) in the experiment on OVCAR-4; 28.8 µM (inactive) in the experiment on NCI/ADR-RES. Further, the GI50 with CCRF-CEM was 16.7 µM (inactive); in the experiment on SK-MEL-5, 22.1 µM (inactive); in the experiment on HOP-92, > 10 µM (inactive); in the experiment on UACC-257, > 100 µM (inactive); in the experiment with HL-60, 13.1 µM (inactive); in the experiment with SR it was 15.8 µM (inactive). Further, the GI50 in the experiment with HCC 2998 is > 10 µM (inactive); with SN12C, 31.6 µM (inactive).

With `COc1nc2ccc(CNc3ccc(C(=O)NC(CCC(=O)O)C(=O)O)cc3)cc2nc1OC` (centres undefined), the GI50 with NCI-H226 was > 100 µM (inactive); in the experiment on TK-10, > 100 µM (inactive); with COLO 205, > 100 µM (inactive); in the experiment with K562, 25.3 µM (inactive); in the experiment on SNB-75, > 100 µM (inactive); with OVCAR-4, > 100 µM (inactive). Further, the GI50 was > 100 µM (inactive) in the experiment on NCI/ADR-RES; > 100 µM (inactive) in the experiment with SNB-19; 23.2 µM (inactive) in the experiment on CCRF-CEM; 90.8 µM (inactive) with Malme-3M; > 100 µM (inactive) in the experiment on SK-MEL-5; > 100 µM (inactive) with SF-268. Moreover, the GI50 with UACC-257, in the experiment with UACC-62, in the experiment with HL-60, with KM12, in the experiment on SR and with HCC 2998 was > 100 µM (inactive) in each case. Also, the GI50 with SN12C was > 100 µM (inactive).

Regarding `C=C(C(=O)C(=O)Oc1ccc(Cl)cc1)C(=O)c1ccc(C)cc1`, the GI50 was > 100 µM (inactive) in the experiment on NCI-H226; > 100 µM (inactive) in the experiment with TK-10; > 100 µM (inactive) with COLO 205; 81.5 µM (inactive) in the experiment with K562; 39.2 µM (inactive) in the experiment on SNB-75; > 100 µM (inactive) in the experiment on OVCAR-4. Besides, the GI50 in the experiment with SNB-19 was 53.2 µM (inactive); in the experiment with CCRF-CEM it was 22.8 µM (inactive); with Malme-3M it was 78.3 µM (inactive); in the experiment with SK-MEL-5, 67.6 µM (inactive); with SF-268, 46.8 µM (inactive); with HOP-92, > 100 µM (inactive). Further, the GI50 with UACC-257 was 71.8 µM (inactive); with UACC-62, 41.4 µM (inactive); in the experiment on HL-60, 17.9 µM (inactive); in the experiment on KM12, 21.5 µM (inactive); in the experiment on SR, 13.1 µM (inactive); in the experiment on HCC 2998, 26.5 µM (inactive). Also, the GI50 in the experiment with SN12C is 49.9 µM (inactive).

Consider `O=[N+]([O-])C(=C/c1ccccc1)/C(=C\c1ccccc1)[N+](=O)[O-]`, for which the GI50 in the experiment on NCI-H226 was 19.1 µM (inactive); in the experiment with TK-10 it was 16.1 µM (inactive); in the experiment with COLO 205 it was 15.2 µM (inactive); in the experiment on K562, 7.11 µM (inactive); in the experiment on SNB-75 it was 18.4 µM (inactive); in the experiment with OVCAR-4 it was 21.3 µM (inactive). Besides, the GI50 was 18.7 µM (inactive) in the experiment on NCI/ADR-RES; 18.2 µM (inactive) in the experiment on SNB-19; 1.71 µM (inactive) in the experiment on CCRF-CEM; 15.9 µM (inactive) in the experiment on SK-MEL-5; 26.7 µM (inactive) in the experiment with SF-268; 21.3 µM (inactive) in the experiment with HOP-92. Further, the GI50 in the experiment with UACC-257 was 17 µM (inactive); in the experiment on UACC-62, 16.6 µM (inactive); in the experiment on KM12 it was 15.4 µM (inactive); in the experiment with HCC 2998, 21.6 µM (inactive); in the experiment with SN12C, 23.4 µM (inactive).

For `COc1cc2c(cc1OC)-c1cc3ccccc3c(=O)n1CC2`, the GI50 is 26.8 µM (inactive) in the experiment with NCI-H226; 19.9 µM (inactive) with TK-10; 37.8 µM (inactive) in the experiment with COLO 205; 26.1 µM (inactive) in the experiment on K562; 11.9 µM (inactive) with SNB-75; 41.6 µM (inactive) with OVCAR-4. Also, the GI50 is 25.2 µM (inactive) in the experiment with NCI/ADR-RES; 43.7 µM (inactive) in the experiment on SNB-19; 25 µM (inactive) in the experiment on CCRF-CEM; 16.4 µM (inactive) in the experiment on Malme-3M; 7.26 µM (inactive) in the experiment on SK-MEL-5; 24.9 µM (inactive) in the experiment on SF-268. The GI50 with HOP-92 was 14.1 µM (inactive); in the experiment on UACC-257, 40.8 µM (inactive); in the experiment with UACC-62 it was 18.2 µM (inactive); in the experiment on KM12, 13.2 µM (inactive); in the experiment with SR, 14.3 µM (inactive); with HCC 2998, 16.6 µM (inactive). For the same compound, the GI50 in the experiment with SN12C is 26.1 µM (inactive).

Take `c1ccc(/N=C2\SC3=NCCN3\C2=N/c2ccccc2)cc1`: the GI50 in the experiment with NCI-H226 is 20.6 µM (inactive); in the experiment on COLO 205 it was 15.5 µM (inactive); in the experiment with K562, 4.24 µM (inactive); with SNB-75, 18 µM (inactive); with NCI/ADR-RES, 28 µM (inactive); in the experiment on SNB-19, 17.1 µM (inactive). Also, the GI50 with CCRF-CEM is 2.68 µM (inactive); in the experiment with Malme-3M, > 10 µM (inactive); in the experiment with SK-MEL-5 it was 15.5 µM (inactive); in the experiment on HOP-92, 27.1 µM (inactive); with UACC-62 it was 7.38 µM (inactive); with KM12, 15.9 µM (inactive). Further, the GI50 with SR was 21.4 µM (inactive); in the experiment on HCC 2998, 18.7 µM (inactive); in the experiment with SN12C, 22.8 µM (inactive).

Regarding `O=C(CCN(CCO)CCO)Nc1ccc2c(c1)C(=O)c1ccc(NC(=O)CCN(CCO)CCO)cc1C2=O`, the GI50 with NCI-H226 is 6.95 µM (inactive); in the experiment on TK-10, 13.4 µM (inactive); in the experiment with COLO 205 it was 10.7 µM (inactive); with K562, 18.5 µM (inactive); in the experiment with SNB-75 it was 30.8 µM (inactive); with OVCAR-4 it was 20 µM (inactive). The GI50 with SNB-19 is 22.5 µM (inactive); in the experiment with CCRF-CEM, 6.52 µM (inactive); in the experiment with Malme-3M, 12.8 µM (inactive); in the experiment on SK-MEL-5, 17.2 µM (inactive); in the experiment with SF-268 it was 12.2 µM (inactive); with HOP-92 it was 26.7 µM (inactive). For the same compound, the GI50 in the experiment on UACC-257 was 24.1 µM (inactive); in the experiment with UACC-62 it was 3.44 µM (inactive); in the experiment with HL-60 it was 9.59 µM (inactive); with KM12, 14.4 µM (inactive); in the experiment on SR it was 14.8 µM (inactive); in the experiment with HCC 2998, 1.51 µM (inactive). The GI50 in the experiment with SN12C is 12.8 µM (inactive).

For the compound `NC1(C(=O)O)CCCC1` [CYCLOLEUCINE], the GI50 with NCI-H226, in the experiment with COLO 205, in the experiment with K562, in the experiment on SNB-75, in the experiment with OVCAR-4 and in the experiment on NCI/ADR-RES was > 625 µM (inactive) each time. The GI50 in the experiment on SNB-19 was > 99.1 µM (inactive); in the experiment on CCRF-CEM it was > 625 µM (inactive); in the experiment on Malme-3M, > 625 µM (inactive); in the experiment on SK-MEL-5 it was > 625 µM (inactive); with SF-268, > 177 µM (inactive); in the experiment with HOP-92, > 625 µM (inactive). In addition, the GI50 with UACC-257 was > 625 µM (inactive); in the experiment with UACC-62, > 625 µM (inactive); with HL-60, > 625 µM (inactive); with KM12 it was > 625 µM (inactive); in the experiment with HCC 2998 it was > 625 µM (inactive); in the experiment with SN12C, > 91 µM (inactive).
